Assays:
Mus musculus [1] = assay: (§1) Analgesic activity in formalin-induced nociception Albino Swiss CD-1 mouse model assessed as time spent on licking formalin injected hind paw during neurogenic phase at 20 mg/kg, ip pretreated for 30 mins followed by formalin induction measured up to 5 mins (reference value: 60.23 +/- 5.12 s); format: functional
Mus musculus [2] = assay: as §1, with “inflammatory” for “neurogenic”, “5” for “20”, “after 15” for “up”, “30” for “5”, “138.5” for “60.23”, “8.55” for “5.12”; format: functional
Mus musculus [3] = assay: (§2) Analgesic activity in formalin-induced nociception Albino Swiss CD-1 mouse model assessed as time spent on licking formalin injected hind paw during neurogenic phase at 10 mg/kg, ip pretreated for 30 mins followed by formalin induction measured up to 5 mins (reference value: 60.23 +/- 5.12 s); format: functional
[4] = Neurotoxicity in Albino Swiss CD-1 mouse assessed as motor impairment at 20 mg/kg, ip measured for 1 min at 6 to 24 rpm by rotarod test; format: toxicity, organism-based; conditions: in vivo
[5] = Acute toxicity in Albino Swiss CD-1 mouse assessed as mortality at 500 mg/kg, ip measured after 72 hrs relative to control; format: organism-based; conditions: in vivo
Mus musculus [6] = assay: Sedative activity in ip dosed Albino Swiss CD-1 mouse assessed as effect on locomotor activity by measuring reduction in number of light beam crossings treated for 30 mins measured for next 30 mins; format: organism-based; conditions: in vivo, 0.5 h
Mus musculus [7] = assay: as §1, with “inflammatory” for “neurogenic”, “after 15” for “up”, “30” for “5”, “138.5” for “60.23”, “8.55” for “5.12”; format: functional
Mus musculus [8] = assay: Analgesic activity in ip dosed formalin-induced nociception Albino Swiss CD-1 mouse model assessed as reduction in time spent on licking formalin injected hind paw during inflammatory phase pretreated for 30 mins followed by formalin induction measured after 15 to 30 mins; format: functional; conditions: Swiss CD-1, ip
[9] = Acute toxicity in Albino Swiss CD-1 mouse assessed as mortality at 1000 mg/kg, ip measured after 72 hrs relative to control; format: organism-based; conditions: in vivo
[10] = Acute toxicity in ip dosed Albino Swiss CD-1 mouse measured for 24 hrs; format: organism-based; conditions: in vivo
Mus musculus [11] = assay: (§3) Analgesic activity in formalin-induced nociception Albino Swiss CD-1 mouse model assessed as time spent on licking formalin injected hind paw during neurogenic phase at 5 mg/kg, ip pretreated for 30 mins followed by formalin induction measured up to 5 mins (reference value: 60.23 +/- 5.12 s); format: functional
Mus musculus [12] = assay: as §2, with “inflammatory” for “neurogenic”, “after 15” for “up”, “30” for “5”, “138.5” for “60.23”, “8.55” for “5.12”; format: functional
Mus musculus [13] = assay: Potency index, ratio of piroxicam ED50 to test compound ED50 for analgesic activity in ip dosed formalin-induced nociception Albino Swiss CD-1 mouse model assessed as reduction in time spent on licking formalin injected hind paw during inflammatory phase; format: functional
[14] = Acute toxicity in Albino Swiss CD-1 mouse assessed as mortality at 250 mg/kg, ip measured after 72 hrs relative to control; format: organism-based; conditions: in vivo
Mus musculus [15] = assay: Analgesic activity in ip dosed formalin-induced nociception Albino Swiss CD-1 mouse model assessed as reduction in time spent on licking formalin injected hind paw during neurogenic phase pretreated for 30 mins followed by formalin induction measured up to 5 mins; format: functional; conditions: Swiss CD-1, ip
[16] = Acute toxicity in Albino Swiss CD-1 mouse assessed as mortality at 2000 mg/kg, ip measured after 72 hrs relative to control; format: organism-based; conditions: in vivo
[17] = Ulcerogenic activity in Wistar (Krf:(WI) WU) rat assessed as change in gastric mucosa at 25 mg/kg measured after 24 hrs by stereo microscopic analysis; format: toxicity, organism-based; conditions: in vivo
Mus musculus [18] = assay: as §3, with “inflammatory” for “neurogenic”, “30” for “5”, “after 15” for “up”, “138.5” for “60.23”, “8.55” for “5.12”; format: functional
Mus musculus [19] = assay: Analgesic activity in formalin-induced nociception Albino Swiss CD-1 mouse model assessed as time spent on licking formalin injected hind paw during neurogenic phase at 30 mg/kg, ip pretreated for 30 mins followed by formalin induction measured up to 5 mins (reference value: 60.23 +/- 5.12 s); format: functional

| SMILES | Time (Mus musculus [1]) [s] | Time (Mus musculus [2]) [s] | Time (Mus musculus [3]) [s] | Activity [4] | mortality at 72 h [5] [%] | ED50 (Mus musculus [6]) [mg/kg] | Time (Mus musculus [7]) [s] | ED50 (Mus musculus [8]) [mg/kg] | mortality at 72 h [9] [%] | LD50 at 24 h [10] [mg/kg] | Time (Mus musculus [11]) [s] | Time (Mus musculus [12]) [s] | Ratio ED50 (Mus musculus [13]) | mortality at 72 h [14] [%] | ED50 (Mus musculus [15]) [mg/kg] | mortality at 72 h [16] [%] | Activity [17] | Time (Mus musculus [18]) [s] | Time (Mus musculus [19]) [s] |
| --- | --- | --- | --- | --- | --- | --- | --- | --- | --- | --- | --- | --- | --- | --- | --- | --- | --- | --- | --- |
| O=C(C1=C(O)c2ccccc2S(=O)(=O)N1CC(=O)N1CCN(c2ccccc2)CC1)c1ccccc1 | 25.83 | 81.13 | 34.29 | Non-Toxic | 50 | 31.55 | 49.71 | 8.85 | 83.3 | 500 | 41.17 | 68.86 | 2 - 5 | 16.7 | 13.9 |  |  |  |  |
| Cc1ccc(C(=O)C2=C(O)c3ccccc3S(=O)(=O)N2CCCN2CCN(c3ccccc3)CC2)cc1 | 47.67 | 62.57 | 51.17 | Non-Toxic |  | 35.42 | 35.33 | 4.01 |  | > 2000 | 59 | 55.86 | 2 - 5 |  |  | 0 |  |  |  |
| Cc1ccc(C(=O)C2=C(O)c3ccccc3S(=O)(=O)N2CC(=O)N2CCN(c3ccccc3)CC2)cc1 | 31 | 90 | 39.75 | Non-Toxic | 66.7 | 40.34 | 28.86 | 7.22 | 83.3 | 569 | 44.86 | 46.86 | 2 - 5 | 0 | 22.8 |  | Non-Toxic |  |  |
| O=C(C1=C(O)c2ccccc2S(=O)(=O)N1CCCN1CCN(c2cccc(C(F)(F)F)c2)CC1)c1ccccc1 | 35.11 | 78.5 | 42.86 | Non-Toxic |  | 38.41 | 48.6 | 7.14 |  | > 2000 | 51.5 | 59.17 | 2 - 5 |  | 27 | 0 |  |  |  |
| O=C(C1=C(O)c2ccccc2S(=O)(=O)N1CC(=O)N1CCN(c2ncccn2)CC1)c1ccc(Br)cc1 | 22.44 | 81.63 | 31.38 | Non-Toxic |  | 29.89 | 48.6 | 8.25 |  | > 2000 | 44.5 | 63.75 | 2 - 5 |  | 11.9 | 0 | Non-Toxic |  |  |
| O=C(C1=C(O)c2ccccc2S(=O)(=O)N1CCCN1CCN(c2ccccc2)CC1)c1ccccc1 | 26.29 | 71.6 | 28.25 | Non-Toxic |  | 34.12 | 44.14 | 6.18 |  | > 2000 | 40 | 63 | 2 - 5 |  | 11.6 | 0 |  |  |  |
| COc1ccccc1N1CCN(C(=O)CN2C(C(=O)c3ccccc3)=C(O)c3ccccc3S2(=O)=O)CC1 | 38.29 | 77.29 | 45.63 | Non-Toxic |  | 32.1 | 55.71 | 7.93 |  | > 2000 | 50.71 | 63.13 | 2 - 5 |  |  | 0 |  |  |  |
| COc1ccccc1N1CCN(CCCN2C(C(=O)c3ccccc3)=C(O)c3ccccc3S2(=O)=O)CC1 | 51.4 | 92.17 | 55.71 | Non-Toxic |  | 33.18 | 35.86 | 9.03 |  | > 2000 | 55.83 | 68.17 | 2 - 5 |  |  | 0 |  |  |  |
| O=C(C1=C(O)c2ccccc2S(=O)(=O)N1CC(=O)N1CCN(c2ccccc2)CC1)c1ccc(F)cc1 | 24.25 | 75.78 | 32 | Non-Toxic | 0 | 26.15 | 30.67 | 6.24 | 66.7 | 957 | 44.8 | 55.29 | 2 - 5 |  | 12.8 | 100 | Non-Toxic |  |  |
| CN1C(C(=O)Nc2ccccn2)=C(O)c2ccccc2S1(=O)=O [PIROXICAM] | 59.16 | 116.1 | 58.71 |  |  |  | 67.43 | 18.9 |  | 360 | 61.31 | 108.25 |  |  |  |  | Toxic | 37.57 | 49.75 |
